Columns and labels:
[1] = test system: individual fibroblasts (NIG-3T3); assay: Single-cell force response to a perturbing agent, measured with polymer NEMS force sensor; type: cell-based
Experimental: FIGS. 2a-2i illustrate NEMS-enabled single-cell force measurements with high temporal and force resolution. FIGS. 2a-2b provide optical images showing a microfluidics encapsulated force sensor, and FIG. 2c provides an electron micrograph thereof. […] The force data was acquired with a force resolution of 200 pN and a time resolution of 100 ms—25× and 300×, respectively, better than prior state of the art. FIGS. 2f-2h provide plots that show force signatures of two molecular-mechanical processes: small force oscillations, roughly 400 pN peak-to-peak, with a frequency that is monotonically dependent on the force being exerted by the lamellipodium shown in FIG. 2f, with FIG. 2g illustrating the linearity of frequency dependence.
NEMS force sensors can be used in phenotypic screening. […] Cells can then be exposed to one or more potential reagents, such as a pharmaceutical reagent, such as a drug, introduced in a carefully controlled manner using the integrated microfluidics, and the effects of the reagent(s) on the cells, such as the force exerted by the cells, is monitored. […]
The reagent can cause the cell to change in its physiology, such as conformation and/or structure, or change its force response to the reagent. […] The lengthening of the wire can then be detected. […]

cells = assay: Surface chemistry Petri dish experiments: cell adherence and spreading on treated surface; type: cell-based; details: surface treated with this agent only; polymer surface with gold pads
Experimental: FIGS. 3a-3d show results from surface chemistry Petri dish experiments. […] FIG. 3c-3d show results from complete surface chemistry process (SAM, Pluronics and fibronectin): cells are well spread on the gold and absent from the polymer A force sensor comprising a polymer surface with gold pads was used. The cells were to be attached to the pads and not to the polymer. At the beginning, both the pad and the polymer surfaces were hydrophobic, and water contact angle was about 80° on both. A self assembled monolayer was applied to the gold pads using thiol based chemistry. […] Monolayers were deposited from ethanol solutions […]. The monolayers left the gold surface hydrophilic, and water contact angle was about 25°. The polymer regions were coated with Pluronics […]). The surfaces were treated to Pluronics diluted in PBS (phosphate buffer solution), 0.02% to 1% by weight for 20-80 min. […] Pluronics left the surface hydrophilic. The gold regions were coated with Fibronectin. The surfaces were treated with fibronectin diluted in PBS, 5 ug/mL to 50 ug/mL for 20 min-4 hrs. […] FIGS. 3(c) and 3(d) show results from complete surface chemistry process (SAM, Pluronics and fibronectin), wherein cells were well spread on the gold and absent from the polymer. Thus, modifying surface chemistry allowed control of the cell adherence and/or spreading.

| Molecule | large, stable, quantized force steps ([1]; cell's cytoskeleton perturbed with cytochalasin D and allowed to recover in growth media) [nN] | small force oscillations, peak-to-peak ([1]; lamellipodium perturbed with cytochalasin D and recovering in growth media, frequency monotonically dependent on force exerted) | cell attachment and spreading on surface (cells) |
| --- | --- | --- | --- |
| C=C1[C@@H](C)[C@H]2[C@H](Cc3ccccc3)NC(=O)[C@]23[C@H](OC(C)=O)/C=C/[C@@](C)(O)C(=O)[C@@H](C)C/C=C/[C@H]3[C@@H]1O [cytochalasin D, Cytochalasin D] | ~1 | roughly 400 pN |  |
| fibronectin |  |  | cells were spread everywhere |

Source: patent US8476005B2, “Microfluidic embedded polymer NEMS force sensors” (California Institute of Technology, priority 2008, dated 2013)
